Source: patent US6358885B1, “Substituted phenylheterocyclic herbicides” (Mississippi State University, priority 1992, dated 2002)

Columns and labels:
cheatgrass = experiment: Test B preemergence/postemergence greenhouse plant response rating 0 to 10; assay type: in vivo, Bromus secalinus; conditions: 0 to 10 scale
Method in brief: (§1)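 Postemergence treatment of plants two to eighteen cm tall ran alongside preemergence treatment of planted seed, each using compound in a non-phytotoxic solvent.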

blackgrass = experiment: as above; assay type: in vivo, Alopecurus myosuroides; conditions: 0 to 10 scale
Method in brief: as §1

velvetleaf = experiment: as above; assay type: in vivo, Abutilon theophrasti; conditions: 0 to 10 scale
Method in brief: as §1

lambsquarters [1] = experiment: Test C preemergence/postemergence greenhouse plant response rating 0 to 100; assay type: in vivo, Chenopodium album; conditions: POSTEMERGENCE
Method in brief: (§2)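 Compounds in non-phytotoxic solvent applied preemergence to sandy loam one day after planting, postemergence at the 1–4 leaf stage, or to ~2.5 cm floodwater over silt loam.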

soybean [2] = experiment: as above; assay type: in vivo, Glycine max; conditions: POSTEMERGENCE
Method in brief: as §2

sugar beet = experiment: as above; assay type: in vivo, Beta vulgaris; conditions: POSTEMERGENCE
Method in brief: as §2

lambsquarters [3] = experiment: Test B preemergence/postemergence greenhouse plant response rating 0 to 10; assay type: in vivo, Chenopodium album; conditions: 0 to 10 scale
Method in brief: as §1

crabgrass = experiment: as above; assay type: in vivo, Digitaria spp.; conditions: 0 to 10 scale
Method in brief: as §1

barley [4] = experiment: as above; assay type: in vivo, Hordeum vulgare; conditions: 0 to 10 scale
Method in brief: as §1

purple nutsedge = experiment: as above; assay type: in vivo, Cyperus rotundus; conditions: 0 to 10 scale
Method in brief: as §1

pigweed = experiment: Test C preemergence/postemergence greenhouse plant response rating 0 to 100; assay type: in vivo, Amaranthusretroflexus; conditions: POSTEMERGENCE
Method in brief: as §2

rape = experiment: Test B preemergence/postemergence greenhouse plant response rating 0 to 10; assay type: in vivo, Brassica napus; conditions: 0 to 10 scale
Method in brief: as §1

soybean [5] = experiment: as above; assay type: in vivo, Glycine max; conditions: 0 to 10 scale
Method in brief: as §1

wild buckwheat = experiment: Test C preemergence/postemergence greenhouse plant response rating 0 to 100; assay type: in vivo, Polygonum convolvulus; conditions: POSTEMERGENCE
Method in brief: as §2

giant foxtail = experiment: Test B preemergence/postemergence greenhouse plant response rating 0 to 10; assay type: in vivo, Setaria faberii; conditions: 0 to 10 scale
Method in brief: as §1

chickweed = experiment: Test C preemergence/postemergence greenhouse plant response rating 0 to 100; assay type: in vivo, Stellaria media; conditions: POSTEMERGENCE
Method in brief: as §2

barley [6] = experiment: as above; assay type: in vivo, Hordeum vulgare; conditions: POSTEMERGENCE
Method in brief: as §2

ryegrass = experiment: as above; assay type: in vivo, Lolium multiflorum; conditions: POSTEMERGENCE
Method in brief: as §2

## COCN1C(=O)COc2cc(F)c(-c3nn4c(c3Br)CCCC4)cc21 [Compound 67]
cheatgrass; POSTEMERGENCE, Rate 10 g/ha
  Plant response rating, Cheatgrass: 5
cheatgrass; POSTEMERGENCE, Rate 50 g/ha
  Plant response rating, Cheatgrass: 6
cheatgrass; PREEMERGENCE, Rate 10 g/ha
  Plant response rating, Cheatgrass: 2
cheatgrass; PREEMERGENCE, Rate 50 g/ha
  Plant response rating, Cheatgrass: 6
blackgrass; POSTEMERGENCE, Rate 10 g/ha
  Plant response rating, Blackgrass: 4
blackgrass; POSTEMERGENCE, Rate 50 g/ha
  Plant response rating, Blackgrass: 5
blackgrass; PREEMERGENCE, Rate 10 g/ha
  Plant response rating, Blackgrass: 3
blackgrass; PREEMERGENCE, Rate 50 g/ha
  Plant response rating, Blackgrass: 8
velvetleaf; POSTEMERGENCE, Rate 10 g/ha
  Plant response rating, Velvetleaf: 9
velvetleaf; POSTEMERGENCE, Rate 50 g/ha
  Plant response rating, Velvetleaf: 10
velvetleaf; PREEMERGENCE, Rate 50 g/ha
  Plant response rating, Velvetleaf: 1
Lambsquarters [1]; 62 g/ha, 0 to 100 scale
  Plant response rating Lambsquarters: 100
Lambsquarters [1]; Rate 1 g/ha
  Plant response rating (0 to 100), Lambsquarters: 100
Lambsquarters [1]; Rate 4 g/ha
  Plant response rating (0 to 100), Lambsquarters: 100
Lambsquarters [1]; Rate 16 g/ha
  Plant response rating (0 to 100), Lambsquarters: 100
Soybean [2]; 62 g/ha, 0 to 100 scale
  Plant response rating, Soybean: 95
Soybean [2]; Rate 1 g/ha
  Plant response rating (0 to 100), Soybean: 30
Soybean [2]; Rate 4 g/ha
  Plant response rating (0 to 100), Soybean: 50
Soybean [2]; Rate 16 g/ha
  Plant response rating (0 to 100), Soybean: 80
Sugar beet; 62 g/ha, 0 to 100 scale
  Plant response rating, Sugar beet: 100
Sugar beet; Rate 1 g/ha
  Plant response rating (0 to 100), Sugar beet: 100
Sugar beet; Rate 4 g/ha
  Plant response rating (0 to 100), Sugar beet: 100
Sugar beet; Rate 16 g/ha
  Plant response rating (0 to 100), Sugar beet: 100
Lambsquarters [3]; POSTEMERGENCE, Rate 10 g/ha
  Plant response rating, Lambsquarter: 9
Lambsquarters [3]; POSTEMERGENCE, Rate 50 g/ha
  Plant response rating, Lambsquarter: 10
Lambsquarters [3]; PREEMERGENCE, Rate 50 g/ha
  Plant response rating, Lambsquarter: 10
crabgrass; POSTEMERGENCE, Rate 10 g/ha
  Plant response rating, Crabgrass: 5
crabgrass; POSTEMERGENCE, Rate 50 g/ha
  Plant response rating, Crabgrass: 6
crabgrass; PREEMERGENCE, Rate 10 g/ha
  Plant response rating, Crabgrass: 0
crabgrass; PREEMERGENCE, Rate 50 g/ha
  Plant response rating, Crabgrass: 2
Barley [4]; POSTEMERGENCE, Rate 10 g/ha
  Plant response rating, Barley: 4
Barley [4]; POSTEMERGENCE, Rate 50 g/ha
  Plant response rating, Barley: 6
Barley [4]; PREEMERGENCE, Rate 10 g/ha
  Plant response rating, Barley: 0
Barley [4]; PREEMERGENCE, Rate 50 g/ha
  Plant response rating, Barley: 2
Purple nutsedge; POSTEMERGENCE, Rate 10 g/ha
  Plant response rating, Nutsedge: 1
Purple nutsedge; POSTEMERGENCE, Rate 50 g/ha
  Plant response rating, Nutsedge: 3
Purple nutsedge; PREEMERGENCE, Rate 50 g/ha
  Plant response rating, Nutsedge: 0
pigweed; 62 g/ha, 0 to 100 scale
  Plant response rating Pigweed: 100
pigweed; Rate 4 g/ha
  Plant response rating (0 to 100), Pigweed: 70
pigweed; Rate 16 g/ha
  Plant response rating (0 to 100), Pigweed: 100
rape; POSTEMERGENCE, Rate 10 g/ha
  Plant response rating, Rape: 9
rape; POSTEMERGENCE, Rate 50 g/ha
  Plant response rating, Rape: 10
rape; PREEMERGENCE, Rate 50 g/ha
  Plant response rating, Rape: 3
Soybean [5]; POSTEMERGENCE, Rate 10 g/ha
  Plant response rating, Soybean: 8
Soybean [5]; POSTEMERGENCE, Rate 50 g/ha
  Plant response rating, Soybean: 9
Soybean [5]; PREEMERGENCE, Rate 50 g/ha
  Plant response rating, Soybean: 0
Wild buckwheat; 62 g/ha, 0 to 100 scale
  Plant response rating, Wild buckwheat: 100
Wild buckwheat; Rate 4 g/ha
  Plant response rating (0 to 100), Wild buckwheat: 70
Wild buckwheat; Rate 16 g/ha
  Plant response rating (0 to 100), Wild buckwheat: 100
Giant foxtail; POSTEMERGENCE, Rate 10 g/ha
  Plant response rating, Giant foxtail: 5
Giant foxtail; POSTEMERGENCE, Rate 50 g/ha
  Plant response rating, Giant foxtail: 6
Giant foxtail; PREEMERGENCE, Rate 10 g/ha
  Plant response rating, Giant foxtail: 0
Giant foxtail; PREEMERGENCE, Rate 50 g/ha
  Plant response rating, Giant foxtail: 2
chickweed; 62 g/ha, 0 to 100 scale
  Plant response rating, Chickweed: 100
chickweed; Rate 1 g/ha
  Plant response rating (0 to 100), Chickweed: 70
chickweed; Rate 4 g/ha
  Plant response rating (0 to 100), Chickweed: 70
chickweed; Rate 16 g/ha
  Plant response rating (0 to 100), Chickweed: 95
Barley [6]; 62 g/ha, 0 to 100 scale
  Plant response rating Barley Igri: 50
Barley [6]; Rate 1 g/ha
  Plant response rating (0 to 100), Barley Igri: 20
Barley [6]; Rate 4 g/ha
  Plant response rating (0 to 100), Barley Igri: 30
Barley [6]; Rate 16 g/ha
  Plant response rating (0 to 100), Barley Igri: 30
ryegrass; 62 g/ha, 0 to 100 scale
  Plant response rating Ryegrass: 60
ryegrass; Rate 1 g/ha
  Plant response rating (0 to 100), Ryegrass: 20
ryegrass; Rate 4 g/ha
  Plant response rating (0 to 100), Ryegrass: 40
ryegrass; Rate 16 g/ha
  Plant response rating (0 to 100), Ryegrass: 50
